Test results taken from patent US20250381242A1 (INVAIO SCIENCES, INC., priority 2024, published 2025).
No end group written: not given here.

Key:
E. amylovora = conditions: 24 h, 10 μM
E. coli = test: Bacterial growth inhibition by OD600 absorbance, E. coli; format: cell-based, E. coli (DH5-alpha); conditions: peptide 10 μM, 24 hours at 37° C., OD 600 nm
Outline: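 Peptides added to bacterial culture at 10 μM final (0.1% DMSO); X. citri grown at 30° C., E. coli at 37° C., for 24 h. OD600 read before and after growth; percent inhibition derived relative to 0.1% DMSO negative and oxytetracycline/streptomycin positive controls.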

L. crescens = conditions: 10 μM
X. citri = test: Bacterial growth inhibition by OD600 absorbance, X. citri; format: cell-based, X. citri subsp. citri (ATCC 49118); conditions: peptide 10 μM, 24 hours at 30° C., OD 600 nm
A. tumefaciens = conditions: 24 h, 10 μM

| Sequence | growth inhibition, E. amylovora (E. amylovora) [%] | growth inhibition, E. coli (E. coli) [%] | growth inhibition, L. crescens (L. crescens) [%] | growth inhibition, X. citri (X. citri) [%] | growth inhibition, A. tumefaciens (A. tumefaciens) [%] |
| --- | --- | --- | --- | --- | --- |
| GIKDLLKGAAKALVKTVLK [compound 87] | <90 | <90 | <90 | <90 | 98.43 |
| KKFLHSAKKWLKAFVKLFKNW [compound 33] | <90 | 100.00 | 96.12 | 100.00 | 100.00 |
| WIKIWKKIIKKWKK [compound 91] | 100.00 | <90 | <90 | <90 | 98.97 |
| GMWKKILGKLIR [compound 134] | 100.00 | <90 | <90 | <90 | 100.00 |
| IRIRIRPIRIRIRP [compound 98] | 99.58 | 99.61 | <90 | <90 | 99.18 |
| AIWKKIIKKIIKSAKKIG [compound 78] | 100.00 | <90 | <90 | 100.00 | 100.00 |
| LRFLKKILKHLF [compound 120] | 100.00 | 100.00 | <90 | 100.00 | 100.00 |
| WKKIWKKIWKPGIKKWIKKWIK [compound 24] | 98.38 | 100.00 | <90 | 99.69 | 97.97 |
| RFRRLFRIRVRVLKKI [compound 72] | 100.00 | <90 | <90 | 100.00 | 100.00 |
| KILKRLAAKIKKIL [compound 113] | <90 | <90 | <90 | 100.00 | <90 |
| GLWSKIKKAAKTAGKAALGFVNKMV [compound 35] | 100.00 | 100.00 | <90 | 100.00 | 100.00 |
| GKLTKDKLKRGAKKALNVASKVAPIVAAGASIAR [compound 10] | 100.00 | <90 | <90 | 100.00 | 98.37 |
| FRIRVRVKWKLFKKI [compound 81] | 100.00 | 100.00 | <90 | <90 | 100.00 |
| QKRPRVRLSAWKKIWKPGIKKWIK [compound 21] | 100.00 | <90 | <90 | 100.00 | 96.97 |
| GIGKFLHSAKKFGKAFVGEIMNSKKKKKKKKKK [compound 5] | <90 | <90 | <90 | 100.00 | 98.68 |
| WKLKWKLKWKLK [compound 104] | 99.91 | <90 | <90 | <90 | 100.00 |
| FFRNLWKGAKAAFRAGHAAWRA [compound 41] | 100.00 | <90 | <90 | 100.00 | 100.00 |
| GIKIAKKAITIAKKIAKIYW [compound 69] | 100.00 | 93.16 | <90 | 100.00 | 100.00 |
| KWKSFIKNLEKVLKKGPILANLVSIV [compound 23] | 100.00 | 100.00 | 99.03 | 100.00 | 100.00 |
| AFWKKFFKKFFKSAKKFG [compound 67] | 100.00 | 100.00 | <90 | 100.00 | 99.57 |
| WWKAAAKAAAKWW [compound 117] | 99.79 | <90 | <90 | 100.00 | 99.97 |
| ALWKTLLKHVGKAAGKAALNAVTDMVNQ [compound 25] | 100.00 | 100.00 | <90 | 100.00 | 100.00 |
| LVQRGRFGRFLKKVRRFIPKVIIAAQIGSRFG [compound 6] | 98.64 | 99.36 | <90 | 100.00 | 100.00 |
| GLLSNVAGLLKQFAKGGVNAVLNPK [compound 45] | 99.64 | <90 | <90 | 100.00 | <90 |
| RWKIFKKPFKISIHL [compound 90] | 100.00 | 98.69 | <90 | <90 | 100.00 |
| IKKILSKIKKLLK [compound 122] | 93.74 | <90 | <90 | 100.00 | 97.95 |
| GMWSKLLGHLLR [compound 138] | 100.00 | <90 | <90 | <90 | 100.00 |
| GILKTIKSIASKVANTVQKLKRKAKNAVA [compound 20] | 100.00 | 99.03 | <90 | 100.00 | 100.00 |
| KLLKKAGKLLKKAGKLLKKAG [compound 71] | 100.00 | <90 | <90 | 100.00 | 100.00 |
